Reference: paper PMC5267519, “Evaluation of a Novel Renewable Hepatic Cell Model for Prediction of Clinical CYP3A4 Induction Using a Correlation-Based Relative Induction Score Approach” (Drug Metabolism and Disposition, 2017)
“And” between values parts separate entries of the source, which are not always exact repeats. Equal entries are not always repeated. Where two headings read alike, the source gives them in different places.

Assays:
CYP3A4 [1] = test system: CYP3A4; set-up: method as in Luo et al. (2002); details: probenecid concentration up to 20 μM; ref Luo et al. (2002); cited from earlier work
CYP3A4 [2] = details: cited from earlier work
CYP3A4 mRNA [3] = experiment: Concentration-dependent CYP3A4 mRNA induction in HepatoCells; details: for induction response: readout not specified; for Emax / EC50: CYP3A4 mRNA fold increase, NI = no induction observed at tested concentration; for Emax: 3 consecutive days treatment, quinidine: only observed maximum fold induction; for RIS Based on mRNA: RIS = (Emax × Cmax,ub)/(EC50 + Cmax,ub); for EC50: human, nominal concentrations
Procedure: (§1) Cryopreserved HepatoCells were thawed quickly in a 37°C water bath and transferred to Corning Culture Medium for HepatoCells supplemented with 10% fetal bovine serum and Pen/Strep (plating medium). After the cryo-freezing media was removed by centrifugation at 150g for 10 minutes, the cell pellet was resuspended in plating media and cell count was performed with trypan blue. Cells were then seeded in a Corning BioCoat Collagen I–coated plate (500,000 cells/well in 24-well plate or 80,000 cells/well in 96-well plate), and plates were incubated in a 37°C incubator with 5% CO2. […] Cells were then returned to the incubator for overnight culture.
(§2) Stock solutions of test compounds were prepared by dissolving each compound in DMSO and serially diluting the solutions in DMSO. Final working solutions were freshly prepared daily by diluting the 1000× stock solutions in culture medium. Three lots of HepatoCells culture were treated with eight concentrations of test compounds. Both enzymatic activity (testosterone 6β hydroxylase activity) and mRNA expression were measured as endpoints using LC-MS/MS and real-time reverse-transcription polymerase chain reaction, respectively.
(§3) Only curve fitting with correlation coefficient (R^2) > 0.85 is accepted. At high concentrations for some compounds, if toxicity or insolubility becomes obvious, such data are excluded from curve fitting.

CYP3A4 [4] = details: for RIS Based on Enzyme Activity: RIS = (Emax × Cmax,ub)/(EC50 + Cmax,ub)
PXR = test system: PXR; set-up: method as in Luo et al. (2002); details: probenecid concentration up to 50 μM; ref Luo et al. (2002); cited from earlier work
CYP3A4 [5] = test system: CYP3A4
Description: The resulting fitting equation was used to calculate predicted in vivo AUC change for each compound. […] Prediction accuracy using HepatoCells was also compared with prediction accuracy using primary human hepatocytes.

[6] = set-up: method as in Zhang et al., 2014; details: from the literature; ref Zhang et al., 2014; cited from earlier work
human CAR [7] = molecular target: T1, human CAR (Homo sapiens, UniProt Q14994); experiment: Ad-EYFP-hCAR nuclear translocation in HepatoCells; format: cell-based; details: 1 mM phenobarbital for 12 hours
T1 construct: expressed in transfected cells; host or cells: primary human hepatocytes (Corning Gentest inventory), adenoviral transduction
T1 sequence (Q14994 1-352): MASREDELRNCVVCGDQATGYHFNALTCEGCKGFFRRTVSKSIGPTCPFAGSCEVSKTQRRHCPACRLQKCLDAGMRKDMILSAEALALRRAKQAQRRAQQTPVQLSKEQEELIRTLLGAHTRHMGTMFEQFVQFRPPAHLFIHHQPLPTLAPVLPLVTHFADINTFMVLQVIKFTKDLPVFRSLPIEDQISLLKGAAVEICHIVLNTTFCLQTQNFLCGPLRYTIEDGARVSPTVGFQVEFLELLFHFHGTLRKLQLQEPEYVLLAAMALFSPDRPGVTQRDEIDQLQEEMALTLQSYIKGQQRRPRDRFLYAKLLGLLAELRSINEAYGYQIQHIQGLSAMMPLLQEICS
Procedure: Previous studies have used adenoviral-enhanced yellow fluorescent protein-tagged-human CAR (Ad-EYFP-hCAR) as a tool to visualize nuclear translocation of hCAR from cytoplasm in primary human hepatocytes upon exposure to phenobarbital ([Li et al., 2009]). […] The same Ad-EYFP-hCAR fusion protein model system was used to study CAR nuclear translocation in HepatoCells. A 3-day culture of HepatoCells was transduced with Ad-EYFP-hCAR for 24 hours. Infected HepatoCells were then treated with 1 mM phenobarbital for 12 hours.

CYP2B6 [8] = experiment: CYP2B6 induction response to prototypical inducer, enzyme activity, primary human hepatocytes; details: cryopreserved primary human hepatocytes, probe bupropion 250 µM
CYP3A4 mRNA [9] = experiment: in vitro; details: human
Procedure: as §1, §2, §3

CYP2B6 [10] = experiment: CYP2B6 induction response to prototypical inducer, enzyme activity, HepatoCells; details: human, probe bupropion 250 µM
Procedure: as §1

CYP3A4 mRNA [11] = details: human
Procedure: as §1, §2, §3

human CAR [12] = molecular target: T1, human CAR; experiment: Ad-EYFP-hCAR nuclear translocation in primary human hepatocytes; format: cell-based; details: phenobarbital treatment
[13] = Lot 2B HepatoCells, RIS calibration curve
[14] = Lot 3A HepatoCells, RIS calibration curve
[15] = Lot 3B HepatoCells, RIS calibration curve

In the case of `CCCN(CCC)S(=O)(=O)c1ccc(C(=O)O)cc1` [Probenecid], the “induction of CYP3A4 transcript or enzyme activity” value (CYP3A4 [1]) is given as “no activation of PXR or induction of CYP3A4 transcript or enzyme activity”, the “Observed % AUC Change” value (CYP3A4 [2]; clinical DDI, decrease in AUC of victim drug (midazolam or nonmidazolam), ref Zhang et al., 2014) is given as 20% and the “Emax, mRNA expression (all lots)” value (CYP3A4 mRNA [3]; HepatoCells) is given as “more than 20 fold”. For the same molecule, the induction response (CYP3A4 mRNA [3]; HepatoCells, probenecid at 0.1–11 μM, significant = >twofold) was “did not exhibit significant induction response”, the induction response (CYP3A4 mRNA [3]; HepatoCells, probenecid concentration higher than 33 μM) was “strong induction” and the Emax (CYP3A4 mRNA [3]; Lot 2B HepatoCells) was 25 Fold. For the same molecule, the “RIS Based on mRNA” value (CYP3A4 mRNA [3]; Lot 2B) was 2.8, the Emax (CYP3A4 mRNA [3]; Lot 3A HepatoCells) was 26 Fold and the “RIS Based on mRNA” value (CYP3A4 mRNA [3]; Lot 3A) was 3.2. The Emax (CYP3A4 mRNA [3]; Lot 3B HepatoCells) was 22 Fold, the “RIS Based on mRNA” value (CYP3A4 mRNA [3]; Lot 3B) was 2.4 and the EC50 (CYP3A4 mRNA [3]; EC50, Lot 2B HepatoCells) was 187 µM. For the same molecule, the EC50 (CYP3A4 mRNA [3]; EC50, Lot 3A HepatoCells) was 176 µM, the EC50 (CYP3A4 mRNA [3]; EC50, Lot 3B HepatoCells) was 195 µM and the “RIS Based on mRNA, Mean” value (CYP3A4 mRNA [3]; mean of lots 2B, 3A, 3B) was 2.8. For the same molecule, the “Emax, enzyme activity (all lots)” value (CYP3A4 [4]; HepatoCells) was 5.9- to 11.9 fold, the “RIS Based on Enzyme Activity” value (CYP3A4 [4]; Lot 2B) was 1.5 and the “RIS Based on Enzyme Activity” value (CYP3A4 [4]; Lot 3A) was 1.0. The “RIS Based on Enzyme Activity” value (CYP3A4 [4]; Lot 3B) was 0.8, the “RIS Based on Enzyme Activity, Mean” value (CYP3A4 [4]; mean of lots 2B, 3A, 3B) was 1.1 and the “activation of PXR” value (PXR) was “no activation of PXR”. The “Predicted % AUC Change Based on Activity” value (CYP3A4 [5]; [13]) was 96%, the “Predicted % AUC Change Based on mRNA” value (CYP3A4 [5]; [13]) was 98% and the “Predicted % AUC Change Based on Activity” value (CYP3A4 [5]; [14]) was 94%. For the same molecule, the “Predicted % AUC Change Based on mRNA” value (CYP3A4 [5]; [14]) was 98%, the “Predicted % AUC Change Based on Activity” value (CYP3A4 [5]; [15]) was 83% and the “Predicted % AUC Change Based on mRNA” value (CYP3A4 [5]; [15]) was 95%. The “unbound Cmax” value [6] was 28 µM.

In the case of `CCC1(c2ccccc2)C(=O)NC(=O)NC1=O` [Phenobarbital], the “Observed % AUC Change” value (CYP3A4 [2]; human, in vivo) is listed as 61%, the “EYFP-hCAR localisation after treatment” value (human CAR [7]) is listed as “relocates to the cell nuclei” and the fold induction at 72 h, 1 mM (CYP2B6 [8]) is listed as 7.8. The “RIS Based on Enzyme Activity, Mean” value (CYP3A4 [4]; human) was 3.7, the EC50 (CYP3A4 mRNA [9]) was 775 µM and the “Predicted % AUC Change Based on Activity” value (CYP3A4 [5]) was 96% and 98%. The “Predicted % AUC Change Based on mRNA” value (CYP3A4 [5]) was 98% and 95%, the “Predicted AUC change using HepatoCells (range of lots)” value (CYP3A4 [5]) was 95–98% and the fold induction at 72 h, 1 mM (CYP2B6 [10]) was 5. For the same molecule, the “RIS Based on mRNA, Mean” value (CYP3A4 mRNA [11]) was 4.3 and the “EYFP-hCAR localisation after treatment” value (human CAR [12]) was “relocates to the cell nuclei”.
